Source: patent US20220204457A1, “ARGININE GINGIPAIN INHIBITORS” (Cortexyme, Inc., priority 2019, published 2022)

Columns and labels:
[1] = oral administration of RTV 15 minutes prior to Kyt-36; from U.S. Pat. No. 9,758,473; cited from earlier work
cathepsin K = target: T1, cathepsin K (Homo sapiens, UniProt P43235); test: cathepsin screen; format: biochemical
T1 sequence (P43235 115-329): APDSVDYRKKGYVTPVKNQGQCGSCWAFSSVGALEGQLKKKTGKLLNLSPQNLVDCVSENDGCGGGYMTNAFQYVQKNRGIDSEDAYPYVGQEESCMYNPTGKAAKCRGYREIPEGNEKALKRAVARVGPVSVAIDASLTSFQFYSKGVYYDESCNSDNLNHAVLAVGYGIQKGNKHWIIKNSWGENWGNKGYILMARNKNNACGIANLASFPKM

cathepsin B = cathepsin B (Homo sapiens, UniProt P07858); test: cathepsin screen; format: biochemical
Method: The method can also be used to assay enzymes including Kgp, trypsin, and cathepsins such as cathepsin B. For Kgp, the substrate can be succinyl-Ala-Phe-Lys-AMC. For trypsin, the buffer can contain 10 mM Tris and 10 mM CaCl2 (pH 8.0), and the substrate can be Z-Gly-Gly-Arg-AMC. For cathepsin B, the buffer can contain 50 mM sodium phosphate, 1 mM EDTA, and 10 mM 2-mercaptoethanol (pH 6.25), and the substrate can be Z-Arg-Arg-AMC.

cathepsin V = cathepsin V (Homo sapiens, UniProt O60911); test: cathepsin screen; format: biochemical
Sequence of cathepsin V (O60911 114-334): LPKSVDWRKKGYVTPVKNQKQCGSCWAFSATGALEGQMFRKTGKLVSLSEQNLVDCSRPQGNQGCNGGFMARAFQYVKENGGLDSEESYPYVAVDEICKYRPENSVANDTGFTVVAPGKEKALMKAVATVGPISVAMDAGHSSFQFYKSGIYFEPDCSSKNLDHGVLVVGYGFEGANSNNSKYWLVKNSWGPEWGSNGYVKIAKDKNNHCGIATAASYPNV

cathepsin H = target: T2, cathepsin H (Homo sapiens, UniProt P09668); test: cathepsin screen; format: biochemical
T2 sequence (P09668 98-335): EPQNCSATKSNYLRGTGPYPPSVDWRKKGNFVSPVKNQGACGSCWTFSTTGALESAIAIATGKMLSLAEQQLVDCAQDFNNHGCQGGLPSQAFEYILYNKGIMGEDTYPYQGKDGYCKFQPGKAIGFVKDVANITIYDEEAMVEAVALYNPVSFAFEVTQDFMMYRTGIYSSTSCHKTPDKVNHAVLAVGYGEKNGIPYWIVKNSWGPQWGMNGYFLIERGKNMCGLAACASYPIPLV

cathepsin F = target: T3, cathepsin F (Homo sapiens, UniProt Q9UBX1); test: cathepsin screen; format: biochemical
T3 sequence (Q9UBX1 271-484): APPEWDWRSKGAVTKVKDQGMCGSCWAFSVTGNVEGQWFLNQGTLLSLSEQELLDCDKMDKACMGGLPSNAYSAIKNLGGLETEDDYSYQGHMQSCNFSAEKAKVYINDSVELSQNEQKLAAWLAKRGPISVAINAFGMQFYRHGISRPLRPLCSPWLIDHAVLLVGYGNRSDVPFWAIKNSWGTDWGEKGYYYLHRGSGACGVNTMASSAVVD

cathepsin L = cathepsin L (Homo sapiens, UniProt P07711); test: cathepsin screen; format: biochemical
Sequence of cathepsin L (P07711 114-333): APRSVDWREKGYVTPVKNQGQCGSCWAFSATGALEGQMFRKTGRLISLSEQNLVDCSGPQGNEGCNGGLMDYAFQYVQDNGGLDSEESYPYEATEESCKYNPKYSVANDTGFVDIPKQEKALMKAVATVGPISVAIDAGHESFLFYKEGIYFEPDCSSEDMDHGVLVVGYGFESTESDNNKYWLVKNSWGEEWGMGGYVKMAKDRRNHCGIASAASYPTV

cathepsin S = cathepsin S (Homo sapiens, UniProt P25774); test: cathepsin screen; format: biochemical
Sequence of cathepsin S (P25774 115-331): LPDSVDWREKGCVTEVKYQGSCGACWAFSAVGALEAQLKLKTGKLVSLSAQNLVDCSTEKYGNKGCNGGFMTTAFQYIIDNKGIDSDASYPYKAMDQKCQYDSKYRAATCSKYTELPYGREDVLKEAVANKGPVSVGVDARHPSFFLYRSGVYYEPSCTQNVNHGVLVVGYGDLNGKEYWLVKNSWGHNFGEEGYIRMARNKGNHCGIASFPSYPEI

IC50 (cathepsin K) [µM]	IC50 (cathepsin B) [µM]	IC50 (cathepsin V) [µM]	IC50 (cathepsin H) [µM]	IC50 (cathepsin F) [µM]	IC50 (cathepsin L) [µM]	IC50 (cathepsin S) [µM]	Structure (SMILES)	half-life [1]
							CN(NC(=O)CC[C@H](NC(=O)OCc1ccccc1)C(=O)N[C@@H](CCCCN)C(=O)C(=O)NCc1ccccc1)c1ccccc1 [Kyt-36]	increases the half-life
> 10	> 10	> 10	> 10	> 10	> 10	> 10	COC(C)(C)C(=O)N[C@@H](CCCNC(=N)N)C(=O)COC(C(F)(F)F)C(F)(F)F [Compound 1, (S)-N-(6-guanidino-1-((1,1,1,3,3,3-hexafluoropropan-2-yl)oxy)-2-oxohexan-3-yl)-2-methoxy-2-methylpropanamide]	
